According to patent US6313180A, “Steroid compounds having contraceptive and anti-osteoporosis activity” (priority 1997, dated 2001):

Assays:
[1] = molecular target: T1, human estradiol (E) receptor (Homo sapiens, UniProt P03372); type: binding
T1 construct: present in human breast tumor cells (MCF-7 cells); endogenous in cells; host or cells: MCF-7 human breast tumor cells
T1 sequence (P03372 1-595): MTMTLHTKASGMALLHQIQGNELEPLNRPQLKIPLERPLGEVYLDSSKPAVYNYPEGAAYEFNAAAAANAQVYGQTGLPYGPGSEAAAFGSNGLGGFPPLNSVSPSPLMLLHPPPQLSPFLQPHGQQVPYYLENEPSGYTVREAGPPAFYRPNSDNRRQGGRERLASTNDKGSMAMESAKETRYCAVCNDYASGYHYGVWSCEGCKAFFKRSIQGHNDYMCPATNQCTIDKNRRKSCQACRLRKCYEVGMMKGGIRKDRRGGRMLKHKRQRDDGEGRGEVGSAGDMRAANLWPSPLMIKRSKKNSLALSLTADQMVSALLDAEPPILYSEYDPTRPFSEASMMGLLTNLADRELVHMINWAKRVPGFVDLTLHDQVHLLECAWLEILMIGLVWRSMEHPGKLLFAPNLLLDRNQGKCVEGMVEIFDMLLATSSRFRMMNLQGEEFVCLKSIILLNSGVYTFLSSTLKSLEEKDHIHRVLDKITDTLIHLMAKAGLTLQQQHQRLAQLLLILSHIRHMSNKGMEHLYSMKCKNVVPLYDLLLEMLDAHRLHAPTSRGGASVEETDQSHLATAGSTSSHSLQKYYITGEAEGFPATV
Experimental: The relative estradiol receptor binding affinity was measured in the same manner as described above but using 17βestradiol as a reference.
(§1) Several of the compounds according to the Examples I-VI, as well as other compounds according to the invention synthesized in analogous manner, were subjected to the tests described in the Examples VII and VIII. The results are described in the Table, in which the type of A-ring and the substitution at carbon atoms nos. 7, 11, and 17 is indicated. In the columns captioned E and P, the relative binding affinities for the estrogen and progesterone receptors are given; the ED50 results of the AllenDoisy and the McPhail tests have been indicated in μg/kg. In the column captioned "Osteoporosis", the ED50 results of the anti-osteoporosis test are given (dose in μg/kg, day, as described above).

[2] = McPhail test for progestagenic activity in vivo; conditions: oral administration; progestagenic activity; read-out: McPhail ED50
[3] = Allen Doisy test for estrogenic activity in vivo; conditions: oral administration; estrogenic activity; read-out: AllenDoisy ED50
[4] = tested on: ovariectomised rats; assay: Prevention of ovariectomy-induced bone loss in rats (anti-osteoporosis test, pQCT trabecular bone mineral density); type: in vivo, rat (female Wistar); conditions: Rattus norvegicus, 672 h; oral administration; ovariectomised rats, once or twice daily for 4 weeks; 40-60% proportional difference in trabecular bone mineral density; read-out: Osteoporosis ED50
Text: Ovariectomy induces in rats bone loss, which is due to oestrogen deficiency. Administration of oestrogenic compounds prevents this effect. The test is used to evaluate a compound for anti-osteoporotic activity in ovariectomised rats. The effect on bone mass can be evaluated by peripheral Quantitave Computed Tomography (pQCT) measurement of trabecular bone mineral density.
Mature virgin female Wistar rats preferentially, 225-250 g. Strain: Hsd/Cpd:Wu, SPF-bred by Harlan, CPB, Zeist, The Netherlands.
On day 1 of the experiment the rats are weighed and distributed over the cages in order of body weight. The rat with the lowest body weight in the first cage and the heaviest rat in the last cage. Treatments are randomized over the rats per block. A block (group of 3+n treatments) consists of 1 Intact placebo rat, 1 OVX placebo rat, 1 OVX reference rat and 1 rat of each n treatments.
Sham-operation and ovariectomy are performed under ether anaesthesia. After recovery from the anaesthesia, within 24 h, vehicle, reference compound or test compound is administered once or twice daily for 4 weeks.
Trabecular bone mineral density (mg/cm^3) of the metaphyseal part of the femur was measured with a pQCT (peripheral Quantitative Computed Tomography machine; XCT 960A, Stratec, Birkenfeld, Germany) directly after autopsy on fresh tissue. Two 360° scans, which have, due to the X-ray beam, a standard thickness of 1 mm were taken. The scans have a resolution of 0.148×0.148 mm. One scan was taken at 5.5 mm from the distal end of the femur, where trabecular bone mineral density of the metaphyseal part was measured. The other scan was taken in the diaphysis at 13.5 mm from the distal end, which contains no trabecular bone. In the latter scan cortical bone mineral density and the geometrical parameters, such as cortical thickness, total bone area, outer and inner diameter, were determined. Intra- and inter-assay variation for the measurement of trabecular bone mineral density in the distal femur were about 2-3%. The XCT-960A was calibrated with a standard of hydroxyapatite embedded in acrylic plastic.
Ovariectomy causes a statistically significant decrease in trabecular bone mineral density (P≤0.05, 2 way ANOVA).
The active dose (ED50) is the dose where a mean proportional difference in trabecular bone mineral density between 40 and 60% is reached as compared to the sham and ovariectomised group.
as §1

[5] = tested on: human progesterone (P) receptor; assay: Relative progesterone receptor binding affinity, cytoplasmic receptors of MCF-7 cells; conditions: relative to (16α)-16-ethyl-21-hydroxy-19-norpregn-4-ene-3,20-dione, 16 h, 4° C

CCC[C@@H]1Cc2cc(O)ccc2[C@H]2CC[C@@]3(C)[C@@H](C[C@H]4C[C@@H](C)C[C@]43O)[C@H]12 [Code 38514]
Relative binding affinity to the human estradiol (E) receptor [1]: 11% | ED50 [2]: > 2 mg/kg | ED50 [3]: 0.024 mg/kg | ED50 [4]: < 0.032 mg/kg | Relative binding affinity to the human progesterone (P) receptor [5]: 4%
